Test results taken from patent US20240383846A1, “MERCAPTOACETOPHENONE AMINOHYDRAZONES, THEIR SALTS AND USES THEREOF” (priority 2021, published 2024).
Values after ≈ are worked out from the molar mass of the structure shown. Read-outs that look alike come from different tables or passages of the source.

Experiments:
[1] = tested on: A. baumannii AB5075; assay: MIC by broth microdilution (CLSI) against A. baumannii AB5075; format: cell-based, Acinetobacter baumannii; conditions: for MIC: Acinetobacter baumannii
Source text: (§1) Table 1 summarizes the antibacterial activity of certain compounds, according to the present invention, as calculated by minimum inhibitory concentration (MIC) values against one multidrug resistant gram-positive strain (MRSA USA300), and one multidrug resistant gram-negative (Acinetobacter baumannii AB5075). The later bacterial strain is listed at the top of the WHO's critical priority list for antibiotic development. Preferred compounds, according to the present invention are example compounds of formulas 72, 74, and 75, and, in particular, example compound of formula 75.
(§2) The minimum inhibitory concentration (MIC) of tested compounds and control antibiotics was determined using the broth microdilution method according to the guidelines outlined by the Clinical and Laboratory Standards Institute (CLSI, Methods for Dilution Antimicrobial Susceptibility Tests for Bacteria That Grow Aerobically; Approved Standard. January 2012; Vol. Ninth Edition M07-A9. 32 No. 2.). Bacterial strains were grown aerobically overnight on tryptone soy agar plates at 37° C. Afterwards, a bacterial solution equivalent to 0.5 McFarland standard was prepared and diluted in cation-adjusted Mueller-Hinton broth (CAMHB) to achieve a bacterial concentration of about 5×10^5 CFU/mL and seeded in 96-well plates. Compounds and control drugs were added in the first row of the 96-well plates and serially diluted along the plates. Plates were then, incubated aerobically at 37° C. for 18-20 hours.

[2] = tested on: MRSA USA300; assay: MIC by broth microdilution (CLSI) against MRSA USA300; format: cell-based, Staphylococcus aureus; conditions: for MIC: Staphylococcus aureus, read-out: MRSA USA300 MIC
Source text: as §1, §2

[3] = tested on: MRSA USA300; assay: Multi-step resistance experiment, 14 consecutive passages; format: cell-based, Staphylococcus aureus
Protocol: A multi-step resistance experiment was conducted, with example compound of formula 75. Initially, the MICs of heptyl compound and rifampicin, as the control antibiotic, were determined against MRSA USA300 using the broth microdilution method. Then, the strain was subcultured for fourteen consecutive passages over two weeks, with increasing concentrations of the tested agents, to detect the shift in the MIC, if any.
Multi-step resistance testing was conducted as reported earlier (PLOS One, 12 (2017) e0182821). A broth microdilution assay was used to determine the MIC for the MRSA strain USA300 after being exposed for 14 consecutive passages to either the example compound of formula 75, or rifampicin, as a control antibiotic. Briefly, different concentrations of TBT4 and rifampicin were prepared in 10 mL Mueller-Hinton (MH) broth (0.125 to 32 μg/ml and 0.003 to 1024 μg/mL, respectively) and they were inoculated with 10 μL of an overnight culture of S. aureus strain USA300 and then incubated at 37° C., with shaking at 180 rpm, for 24 h. […] Resistance was classified as a greater than four-fold increase in the initial MIC (Antimicrob. Agents Chemother., 55 (2011) 1177-1181).

[4] = tested on: MRSA strain USA300; assay: Murine skin infection model, subcutaneous MRSA infection, topical treatment; format: in vivo; conditions: mice, twice daily for four days; for bacterial counts from skin lesions compared with PJ group / appearance of skin lesions (visual comparison): 2% topical; for bacterial counts from skin lesions compared with PJ group: *p≤0.05; for appearance of skin lesions (visual comparison): vs petroleum jelly vehicle
Protocol: The effectiveness of certain compounds, according to the present invention, was assessed using a murine skin infection model, conducted as previously described (Tseng, C. W. et. al. Subcutaneous infection of methicillin resistant Staphylococcus aureus (MRSA), J. Vis. Exp., (2011) 2528). The effect of example compound of formula 75 was assessed against skin infection caused by methicillin-resistant Staphylococcus aureus (MRSA), the main causative agent of diabetic foot ulcer. Within 72 hours post-subcutaneous infection with MRSA strain USA300, the backs of the mice started showing evident lesions. At this point, treatment regimen started for the three groups of mice, for four days, twice daily, with petroleum jelly (PJ) or petroleum jelly with 2% example compound of formula 75 or 2% fusidic acid ointment (FA). […] The mice with plain vehicle (PJ) applied throughout the experiment had ulcerated lesions and visible skin damage with demarcated red prominent edges, as shown in FIG. 2A.

[5] = broth microdilution, CAMHB, 37° C., 18-20 hours
[6] = AB5075, broth microdilution, CAMHB, 37° C., 18-20 hours, read-out: A. baumannii AB5075 MIC
[7] = comparison of MIC values of Table 1
[8] = end of the experiment (fourteen passages)

Compound	MIC [1, 6] [µg/mL]	MIC [2, 5] [µg/mL]	also measured
CCCSc1ccc(/C(C)=N/NC(=N)N)cc1 [Example compound of formula 68]	–	–	A. baumannii AB5075 MIC [1, 5]: No inhibition; MRSA USA300 MIC [2, 5]: No inhibition
CCCCSc1ccc(/C(C)=N/NC(=N)N)cc1 [Example compound of formula 69]	16	8	–
C=CCCSc1ccc(/C(C)=N/NC(=N)N)cc1 [Example compound of formula 70]	32	32	–
CCCCCSc1ccc(/C(C)=N/NC(=N)N)cc1 [Example compound of formula 71]	16	8	–
CCCCCCCCSc1ccc(/C(C)=N/NC(=N)N)cc1 [Example compound of formula 72]	8	1	–
CCCCCCCCCSc1ccc(/C(C)=N/NC(=N)N)cc1 [Example compound of formula 73]	16	2	–
CCCCCCSc1ccc(/C(C)=N/NC(=N)N)cc1 [Example compound of formula 74, 2-(1-(4-(Hexylthio)phenyl)ethylidene)hydrazine-1-carboximidamide]	4	0.5	potency against tested gram-negative pathogen (A. baumannii AB5075) relative to example compound of formula 75 [1, 7]: four times less potent; potency against S. aureus USA300 relative to example compound of formula 75 [2, 7]: maintained the same potency
CCCCCCCSc1ccc(/C(C)=N/NC(=N)N)cc1 [Example compound of formula 75, 2-(1-(4-(Heptylthio)phenyl)ethylidene)hydrazine-1-carboximidamide]	1	0.5	increase in MIC against MRSA USA300 ([3]; eighth passage): 2 fold; increase in MIC against MRSA USA300 [3, 8]: remained stable till the end of the experiment; increase in MIC against MRSA USA300 ([3]; on the fifth passage): one-fold; decrease in bacterial loads recovered from skin lesions ([4]; 2% in petroleum jelly, topical): ~1 log cycle; reduction in bacterial loads recovered from skin lesions ([4]; 2% in petroleum jelly, topical): 90%; bacterial counts from skin lesions compared with PJ group [4]: significantly lower than the counts obtained from the PJ group; appearance of skin lesions (visual comparison) [4]: showed signs of lesion healing and better recovery
C/C(=N\NC(=N)N)c1ccc(SCC(C)C)cc1 [Example compound of formula 76]	16	8	–
C/C(=N\NC(=N)N)c1ccc(SCCC(C)C)cc1 [Example compound of formula 77]	8	4	–
CCC(CC)CSc1ccc(/C(C)=N/NC(=N)N)cc1 [Example compound of formula 78]	–	–	A. baumannii AB5075 MIC [1, 5]: No inhibition; MRSA USA300 MIC [2, 5]: No inhibition
C/C(=N\NC(=N)N)c1ccc(SC2CCCC2)cc1 [Example compound of formula 79]	16	8	–
C/C(=N\NC(=N)N)c1ccc(SC2CCCCC2)cc1 [Example compound of formula 80]	8	4	–
C/C(=N\NC(=N)N)c1ccc(SCC2CCC2)cc1 [Example compound of formula 81]	16	8	–
C/C(=N\NC(=N)N)c1ccc(SCC2CCCCC2)cc1 [Example compound of formula 82]	–	–	A. baumannii AB5075 MIC [1, 5]: No inhibition; MRSA USA300 MIC [2, 5]: No inhibition
C/C(=N\NC(=N)N)c1ccc(SCc2ccccc2)cc1 [Example compound of formula 83]	16	4	–
C/C(=N\NC(=N)N)c1ccc(SCCc2ccccc2)cc1 [Example compound of formula 84]	8	2	–
CN[C@H](CC(C)C)C(=O)N[C@H]1C(=O)N[C@@H](CC(N)=O)C(=O)N[C@H]2C(=O)N[C@H]3C(=O)N[C@H](C(=O)N[C@H](C(=O)O)c4cc(O)cc(O)c4-c4cc3ccc4O)[C@H](O)c3ccc(c(Cl)c3)Oc3cc2cc(c3O[C@@H]2O[C@H](CO)[C@@H](O)[C@H](O)[C@H]2O[C@H]2C[C@](C)(N)[C@H](O)[C@H](C)O2)Oc2ccc(cc2Cl)[C@H]1O [Vancomycin, reference compound]	–	–	MIC ([1]; AB5075, read-out: A. baumannii AB5075 MIC): > 128 µg/mL; MIC [2]: 1 µg/mL (≈ 0.69 µM)
CC(=O)O[C@H]1C[C@@]2(C)[C@@H](C[C@@H](O)[C@H]3[C@@]4(C)CC[C@@H](O)[C@@H](C)[C@@H]4CC[C@@]32C)/C1=C(\CCC=C(C)C)C(=O)O [fusidic acid, reference compound]	–	–	bacterial counts from skin lesions compared with PJ group [4]: significantly lower than the counts obtained from the PJ group; appearance of skin lesions (visual comparison) [4]: showed signs of lesion healing and better recovery
CO[C@H]1/C=C/O[C@@]2(C)Oc3c(C)c(O)c4c(O)c(c(/C=N/N5CCN(C)CC5)c(O)c4c3C2=O)NC(=O)/C(C)=C\C=C\[C@H](C)[C@H](O)[C@@H](C)[C@@H](O)[C@@H](C)[C@H](OC(C)=O)[C@@H]1C [rifampicin, reference compound]	–	–	increase in MIC against MRSA USA300 ([3]; eighth passage): 7 fold; increase in MIC against MRSA USA300 [3, 8]: 13 fold
Gentamycin [reference compound]	–	–	A. baumannii AB5075 MIC [1, 5]: 1 µg/mL
